In patent US5001137A, “Pyridine compounds and pharmaceutical use thereof” (Yoshitomi Pharmaceutical Industries, Ltd., priority 1988, dated 1991):

target: T1, prolylendopeptidase (Rattus norvegicus, UniProt O70196); test: Measurement of prolylendopeptidase-inhibitory activity (rat cerebral soluble fractions as crude enzyme; succinyl-glycyl-prolylmethylcoumarinamide substrate, fluorescence); type: biochemical; settings: rat cerebral soluble fraction, pH 7.0, 30° C., 15 minutes, 0.25% dimethylsulfoxide
T1 construct: using rat cerebral soluble fractions as the crude enzyme; from tissue; host or cells: rat cerebrum, soluble fraction (crude enzyme)
T1 sequence (O70196 whole entry): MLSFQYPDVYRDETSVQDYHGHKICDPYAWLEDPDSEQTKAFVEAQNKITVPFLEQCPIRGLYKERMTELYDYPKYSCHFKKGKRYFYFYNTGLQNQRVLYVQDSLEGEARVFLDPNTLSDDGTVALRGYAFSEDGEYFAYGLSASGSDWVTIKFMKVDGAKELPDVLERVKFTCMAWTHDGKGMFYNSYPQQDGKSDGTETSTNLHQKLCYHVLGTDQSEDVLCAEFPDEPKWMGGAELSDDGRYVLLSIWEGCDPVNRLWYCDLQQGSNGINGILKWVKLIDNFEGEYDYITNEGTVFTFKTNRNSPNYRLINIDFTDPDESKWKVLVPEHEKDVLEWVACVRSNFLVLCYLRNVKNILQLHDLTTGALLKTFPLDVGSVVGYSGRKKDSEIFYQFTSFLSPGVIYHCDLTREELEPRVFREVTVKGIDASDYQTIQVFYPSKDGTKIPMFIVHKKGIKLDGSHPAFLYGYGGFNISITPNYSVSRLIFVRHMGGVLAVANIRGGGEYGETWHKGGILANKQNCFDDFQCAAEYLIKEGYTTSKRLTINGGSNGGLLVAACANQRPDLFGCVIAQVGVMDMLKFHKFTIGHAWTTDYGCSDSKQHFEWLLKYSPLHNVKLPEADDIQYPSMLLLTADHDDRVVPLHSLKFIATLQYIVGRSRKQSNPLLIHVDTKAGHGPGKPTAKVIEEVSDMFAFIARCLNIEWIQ
Protocol: The prolylendopeptidase-inhibitory activity was estimated, using rat cerebral soluble fractions as the crude enzyme, in accordance with the methods by Yoshimoto et al (Biochem. Biophys. Acta., vol. 569, p 184 (1979)) and Kato et al. (J. Neurochem., vol. 35, p 527 (1980)). That is, a mixture containing 0.1 ml of 0.25 mM succinyl-glycyl-prolylmethylcoumarinamide, 1.15 ml of 0.1M Na/K phosphate buffer solution (pH 7.0), 0.1 ml of the crude enzyme and 0.1 ml of a solution of the compound of the present invention (at the final concentration of dimethylsulfoxide of 0.25%) was incubated at 30° C. for 15 minutes. Thereafter 1.5 ml of 0.1M acetate buffer solution (pH 4.2) was added to terminate the reaction. The fluorescence intensity (a) of the liberated methyl coumarinamide was measured by a fluorophotometer (Ex. 370 nm, Em. 440 nm). At the same time, the fluorescence intensity (b) of the control comprising a dimethylsulfoxide solution alone (at the final concentration of 0.25%) instead of the compound of the present invention was measured, and the prolylendopeptidase-inhibitory rate was calculated in accordance with the following formula and the concentration at which 50% of inhibition (IC50) can be attained was estimated.
Inhibition (%)={(b-a)/b)}×100

Compound | IC50
CN(C)CCc1ccc(Oc2ncccc2C(=O)c2cccs2)cc1 [Example 1, 2-[4-(2-dimethylaminoethyl)phenoxy]-3-(2-thenoyl)pyridine] | 0.014 µM
CN(C)CCCCCCOc1ccc(Oc2ncccc2C(=O)c2cccs2)cc1 [Example 2, 2-[4-(6-dimethylaminohexyloxy)phenoxy]-3-(2-thenoyl)pyridine] | 0.03 µM
CN(C)CCCOc1ccc(Oc2ncccc2C(=O)c2cccs2)cc1 [Example 4, 2-[4-(3-dimethylaminopropoxy)phenoxy]-3-(2-thenoyl)pyridine] | 0.06 µM
CN(C)CCCCCCSc1ncccc1C(=O)c1cccs1 [Example 5, 2-(6-dimethylaminohexylthio)-3-(2-thenoyl)pyridine] | 0.0095 µM
CN(CCCCCCOc1ncccc1C(=O)c1cccs1)Cc1ccccc1 [Example 6, 2-[6-(N-benzyl-N-methylamino)hexyloxy]-3-(2-thenoyl)pyridine] | 0.078 µM
CN(C)CCCCCCOc1ncccc1C(=O)c1cccs1 [Example 13, 2-(6-dimethylaminohexyloxy)-3-(2-thenoyl)pyridine] | 0.055 µM
CC(CSCCCCCCN(C)C)Sc1ncccc1C(=O)c1cccs1 (stereo not shown) [Example 17, 2-[2-(6-Dimethylaminohexylthio)-1-methylethylthio]-3-(2-thenoyl)pyridine] | 0.0045 µM
Cc1ccc(C(=O)c2cccs2)c(SCCCCCCN(C)C)n1 [Example 18, 2-(6-Dimethylaminohexylthio)-6-methyl-3-(2-thenoyl)pyridine] | 0.0095 µM
CN(C)CCCCCCSCCSc1ncccc1C(=O)c1cccs1 [Example 19, 2-[2-(6-Dimethylaminohexylthio)ethylthio]-3-(2-thenoyl)pyridine] | 0.0045 µM
CC(CSCCCN(C)C)Sc1ncccc1C(=O)c1cccs1 (stereo not shown) [Example 20, 2-[2 (3-Dimethylaminopropylthio)-1-methylethylthio]-3-(2-thenoyl)pyridine] | 0.0045 µM
CC(C)c1ccc(C(=O)c2cccs2)c(SCCCCCCN(C)C)n1 [Example 21, 2-(6-Dimethylaminohexylthio)-6-isopropyl-3-(2-thenoyl)pyridine] | 0.0055 µM
CCN(CC)CCCCCCSc1nc(C(C)C)ccc1C(=O)c1cccs1 [Example 22, 2-(6-Diethylaminohexylthio)-6-isopropyl-3-(2-thenoyl)pyridine] | 0.011 µM
CN(C)CCCOc1ncccc1C(=O)c1ccc(Cl)cc1 [Known Compound, 3-(4-chlorobenzoyl)-2-(3-dimethylaminepropoxy)pyridine, reference compound] | 1800 µM
